Patent US5717095A, “Nucleotide analogs” (Gilead Sciences, Inc., priority 1996, dated 1998)
“Also recorded” adds a separate entry of the source. Where two headings read alike, the source gives them in different places.

Legend:
HSV II = assay: Inhibition of cytopathic effects by HSV II in MA 104 cells (XTT); format: cell-based, HSV-2; settings: for IC50: Human alphaherpesvirus 2, MA104
Protocol: Compounds were individually tested for activity against HSV-1 and/or HSV-2. HSV-2 (strain 414-92) was tested using MA 104 cells in the following assay protocol. 96-Well plates were seeded with 1×10^4 MA 104 cells per well using 200 μL minimal essential medium (MEM) containing 10% calf serum per well, and incubated overnight at 37° C. The compounds were dissolved in MEM Earle's Salts without serum. The medium was removed by aspiration and 100 μL MEM Earle's Salts without serum was added to the wells. Serial 3-fold dilutions of the compounds were prepared by serial transfer of 50 μL of medium from wells containing compound to wells lacking compound. The plates were incubated 15 minutes at 37° C. followed by addition of 100 PFU/well of virus in MEM Earle's Salts with 2% fetal bovine serum. The plates were then incubated at 37° C. for three days until approximately 90% of the cells in virus infected control wells containing no compound were killed. Following incubation, medium was aspirated and the wells were washed with sterile PBS. […] The results, shown in Table 6, were expressed as the IC50, the concentration (μM) that inhibits cell killing mediated by HSV-2 by 50%. […] The toxicity of the compounds were expressed as the CC50, the concentration that kills 50% of uninfected cells.

[1] = test system: herpes simplex virus, type 1 or 2 (HSV-1 and -2); settings: cited from earlier work
[2] = test system: varicella zoster virus (VZV); settings: cited from earlier work
adenovirus = settings: cited from earlier work
vaccinia virus = settings: cited from earlier work
[3] = test system: thymidine kinase-deficient (TK^-) mutants of herpes simplex virus; settings: TK^- HSV mutants; cited from earlier work
HCMV [4] = settings: cited from earlier work
[5] = test system: phocid herpesvirus type 1 (seal herpesvirus, SeHV); settings: cited from earlier work
[6] = test system: simian herpesvirus type 1 (SHV-1), or pseudorabies virus or Aujeszky's disease virus; settings: SHV-1 / pseudorabies virus; cited from earlier work
[7] = test system: bovid herpesvirus type 1 (infectious bovine rhinotracheitis virus, BHV-1); settings: cited from earlier work
[8] = test system: equid herpesvirus type 1 (equine abortion virus, EHV-1); settings: cited from earlier work
[9] = test system: African swine fever (ASF) virus; settings: cited from earlier work
[10] = test system: retroviruses such as murine sarcoma virus (MSV); settings: cited from earlier work
[11] = test system: herpes simplex virus type 1; settings: mice and rabbits, local and systemic HSV-1 infections, including herpetic keratitis caused by acyclovir-type-drug-resistant TK^- mutant; cited from earlier work
HSV-2 (strain 414-92) = assay: Inhibition of HSV-2 mediated cell killing in MA 104 cells (crystal violet); format: cell-based; settings: Human alphaherpesvirus 2, MA104, 72 h, read-out: HSV-2 IC50, concentration that inhibits cell killing mediated by HSV-2 by 50%
Protocol: Compounds were individually tested for activity against HSV-1 and/or HSV-2. HSV-2 (strain 414-92) was tested using MA 104 cells in the following assay protocol. 96-Well plates were seeded with 1×10^4 MA 104 cells per well using 200 μL minimal essential medium (MEM) containing 10% calf serum per well, and incubated overnight at 37° C. The compounds were dissolved in MEM Earle's Salts without serum. The medium was removed by aspiration and 100 μL MEM Earle's Salts without serum was added to the wells. Serial 3-fold dilutions of the compounds were prepared by serial transfer of 50 μL of medium from wells containing compound to wells lacking compound. The plates were incubated 15 minutes at 37° C. followed by addition of 100 PFU/well of virus in MEM Earle's Salts with 2% fetal bovine serum. The plates were then incubated at 37° C. for three days until approximately 90% of the cells in virus infected control wells containing no compound were killed. Following incubation, medium was aspirated and the wells were washed with sterile PBS. 100 μL 0.5% crystal violet in 20% methanol was then added to the wells for 5 minutes, aspirated and the wells were washed two or three times with distilled water. 200 μL of 0.01 N HCl was added to the wells and the absorbance of each well at 595 nm was determined. The results, shown in Table 6, were expressed as the IC50, the concentration (μM) that inhibits cell killing mediated by HSV-2 by 50%. […] The toxicity of the compounds were expressed as the CC50, the concentration that kills 50% of uninfected cells.

[12] = Toxicity to uninfected MA 104 cells; format: cell-based; settings: monkey, read-out: CC50, concentration that kills 50% of uninfected cells
KOS strain of HSV-1 = assay: Activity against KOS strain of HSV-1 in VERO cells; format: cell-based; settings: read-out: HSV-1 EC50, concentration that inhibits cell killing by 50%
Protocol: The compounds were also tested for activity against the KOS strain of HSV-1 in VERO cells. The results, shown in Table 7, were expressed as the EC50, the concentration (μM) that inhibits cell killing mediated by HSV-2 by 50%.

HCMV [13] = assay: Activity against HCMV in tissue culture (NHDF cell line); format: cell-based; settings: Human betaherpesvirus 5
From the text: The title compound was synthesized using N^4 -benzoyl HPMPC diethyl ester tritylated at the hydroxyl group as a starting material. The starting material was detritylated using acetic acid and then converted to N^4 -benzoyl HPMPC using TMSBr. The resulting compound was converted to N^4 -benzoyl cHPMPC using DCC and morpholine in pyridine.

[14] = test system: human cytomegalovirus (HCMV); settings: in both humans and animals; cited from earlier work
in vitro = format: cell-based; settings: monkey, ma 104 cells
Protocol: Compounds were individually tested for activity against HSV-1 and/or HSV-2. HSV-2 (strain 414-92) was tested using MA 104 cells in the following assay protocol. 96-Well plates were seeded with 1×10^4 MA 104 cells per well using 200 μL minimal essential medium (MEM) containing 10% calf serum per well, and incubated overnight at 37° C. The compounds were dissolved in MEM Earle's Salts without serum. The medium was removed by aspiration and 100 μL MEM Earle's Salts without serum was added to the wells. Serial 3-fold dilutions of the compounds were prepared by serial transfer of 50 μL of medium from wells containing compound to wells lacking compound. The plates were incubated 15 minutes at 37° C. followed by addition of 100 PFU/well of virus in MEM Earle's Salts with 2% fetal bovine serum. The plates were then incubated at 37° C. for three days until approximately 90% of the cells in virus infected control wells containing no compound were killed. Following incubation, medium was aspirated and the wells were washed with sterile PBS. 100 μL 0.5% crystal violet in 20% methanol was then added to the wells for 5 minutes, aspirated and the wells were washed two or three times with distilled water. 200 μL of 0.01 N HCl was added to the wells and the absorbance of each well at 595 nm was determined. […]

[15] = rhesus monkey, in vivo; cited from earlier work
in vivo = settings: rhesus monkey, po
[16] = Conversion in rat intestinal homogenate; format: in vitro ADME
From the text: (§1) The cHPMPC pivaloyloxymethyl ester synthesis yields a racemic mixture at the phosphorus atom. The mixture was separated by HPLC into the two isomers which were then exposed to an rat intestinal homogenate or to a rat intestinal wash.

[17] = Conversion in rat intestinal wash; format: in vitro ADME; settings: both phosphorus isomers
From the text: as §1

[18] = MA 104 cells, HSV-2 strain 414-92, three days
[19] = Human alphaherpesvirus 1, KOS strain of HSV-1, VERO cells

## CCOC(=O)c1ccccc1OP(=O)(COCCn1cnc2c(N)ncnc21)Oc1ccccc1C(=O)OCC
HSV II
  activity (inhibition of cytopathic effects): active

## Nc1ncnc2c1ncn2C[C@@H](CO)OCP(=O)(O)O [(S)-HPMPA]
[1]
  antiviral activity: active; also recorded: potent and selective activity
[2]
  antiviral activity: active; also recorded: potent and selective activity
adenovirus
  antiviral activity: active; also recorded: potent and selective activity
Vaccinia virus
  antiviral activity: active; also recorded: potent and selective activity
[3]
  antiviral activity: potent and selective activity
HCMV [4]
  antiviral activity: potent and selective activity
[5]
  antiviral activity: potent and selective activity
[6]
  antiviral activity: potent and selective activity
[7]
  antiviral activity: potent and selective activity
[8]
  antiviral activity: potent and selective activity
[9]
  antiviral activity: potent and selective activity
[10]
  antiviral activity: potent and selective activity
[11]
  in vivo antiviral effect: effective

## Nc1nc(N)c2ncn(C[C@@H](CO)OCP(=O)(O)O)c2n1 [(S)-HPMPDAP]
[1]
  antiviral activity: active

## Nc1nc2c(ncn2C[C@@H](CO)OCP(=O)(O)O)c(=O)[nH]1 [(S)-HPMPG]
[1]
  antiviral activity: active

## Nc1ncnc2c1ncn2C[C@H]1COP(=O)(O)CO1 [(S)-cyclic HPMPA]
[1]
  antiviral activity: active
[2]
  antiviral activity: active
adenovirus
  antiviral activity: active
Vaccinia virus
  antiviral activity: active

## CC(NP(=O)(COCCn1cnc2c(N)ncnc21)NC(C)C(=O)OCc1ccccc1)C(=O)OCc1ccccc1 (centres unmarked) [Ex 1, bis(alanyl benzyl ester)PMEA]
HSV-2 (strain 414-92); [18]
  IC50: 20 µM
[12]
  CC50 at 72 h: > 100 µM

## Nc1ncnc2c1ncn2CCOCP(=O)(NC(Cc1ccccc1)C(=O)OCc1ccccc1)NC(Cc1ccccc1)C(=O)OCc1ccccc1 (centres unmarked) [Ex 2]
HSV-2 (strain 414-92); [18]
  IC50: 4 µM
[12]
  CC50 at 72 h: 20 µM

## Nc1ncnc2c1ncn2CCOCP(=O)(NCC(=O)OCc1ccccc1)NCC(=O)OCc1ccccc1 [Ex 4, bis(glycyl benzyl ester)PMEA]
HSV-2 (strain 414-92); [18]
  IC50: 60 µM
[12]
  CC50 at 72 h: > 100 µM

## CCOC(=O)C(C)NP(=O)(COCCn1cnc2c(N)ncnc21)NC(C)C(=O)OCC (centres unmarked) [Ex 5]
HSV-2 (strain 414-92); [18]
  IC50: > 100 µM
[12]
  CC50 at 72 h: > 100 µM

## CCOC(=O)C(CC(C)C)NP(=O)(COCCn1cnc2c(N)ncnc21)NC(CC(C)C)C(=O)OCC (centres unmarked) [Ex 6]
HSV-2 (strain 414-92); [18]
  IC50: 33 µM
[12]
  CC50 at 72 h: > 100 µM
KOS strain of HSV-1; [19]
  EC50: 20 µM

## CCOC(=O)CNP(=O)(COCCn1cnc2c(N)ncnc21)NCC(=O)OCC [Ex 7]
HSV-2 (strain 414-92); [18]
  IC50: > 100 µM
[12]
  CC50 at 72 h: > 100 µM
KOS strain of HSV-1; [19]
  EC50: > 200 µM

## CC(C)CC(NP(=O)(COCCn1cnc2c(N)ncnc21)NC(CC(C)C)C(=O)OC(C)(C)C)C(=O)OC(C)(C)C (centres unmarked) [Ex 9]
HSV-2 (strain 414-92); [18]
  IC50: 63 µM
[12]
  CC50 at 72 h: > 100 µM
KOS strain of HSV-1; [19]
  EC50: 63 µM

## CC(NP(=O)(COCCn1cnc2c(N)ncnc21)NC(C)C(=O)OC(C)(C)C)C(=O)OC(C)(C)C (centres unmarked) [Ex 10]
HSV-2 (strain 414-92); [18]
  IC50: > 100 µM
[12]
  CC50 at 72 h: > 100 µM
KOS strain of HSV-1; [19]
  EC50: > 200 µM

## CC(C)(C)OC(=O)CNP(=O)(COCCn1cnc2c(N)ncnc21)NCC(=O)OC(C)(C)C [Ex 11]
HSV-2 (strain 414-92); [18]
  IC50: > 100 µM
[12]
  CC50 at 72 h: > 100 µM
KOS strain of HSV-1; [19]
  EC50: > 200 µM

## CCOC(=O)C(Cc1ccccc1)NP(=O)(COCCn1cnc2c(N)ncnc21)NC(Cc1ccccc1)C(=O)OCC (centres unmarked) [Ex 12]
HSV-2 (strain 414-92); [18]
  IC50: 20 µM
[12]
  CC50 at 72 h: 80 µM

## Nc1ccn(C[C@@H](CO)OCP(=O)(O)O)c(=O)n1 [HPMPC]
HCMV [13]
  IC50: 0.4 µM
[1]
  antiviral activity: active
[14]
  antiviral activity: active

## O=C(Nc1ccn(C[C@H]2COP(=O)(O)CO2)c(=O)n1)c1ccccc1 [N^4 -benzoyl cHPMPC]
HCMV [13]
  IC50: 22 µM

## Nc1ncnc2c1ncn2CCOCP(=O)(O)O [PMEA, reference compound]
HSV-2 (strain 414-92)
  IC50: 21 µM
KOS strain of HSV-1; Human alphaherpesvirus 1, Vero
  EC50: 138 µM
HSV II
  IC50: 19.3 µM
In vitro
  CC50: 2000 µM
[15]
  Oral bioavailability: 2-4%

## CCOc1ccccc1OP(=O)(COCCn1cnc2c(N)ncnc21)Oc1ccccc1OCC [bis(2-ethoxyphenyl)PMEA, Bis(2-ethoxyphenyl)PMEA]
HSV II
  activity (inhibition of cytopathic effects): active

## CN(C)c1cccc(OP(=O)(COCCn2cnc3c(N)ncnc32)Oc2cccc(N(C)C)c2)c1 [bis(3-dimethylaminophenyl)PMEA]
HSV II
  activity (inhibition of cytopathic effects): active

## COc1cccc(OP(=O)(COCCn2cnc3c(N)ncnc32)Oc2cccc(OC)c2)c1 [bis(3-methoxyphenyl)PMEA]
HSV II
  activity (inhibition of cytopathic effects): active

## Nc1ncnc2c1ncn2CCOCP(=O)(Oc1ccc(F)cc1)Oc1ccc(F)cc1 [bis(4-fluorophenyl)PMEA]
HSV II
  activity (inhibition of cytopathic effects): active

## CC(C)(C)C(=O)OCOP(=O)(COCCn1cnc2c(N)ncnc21)OCOC(=O)C(C)(C)C [bis(POM)PMEA, reference compound]
HSV II
  activity (inhibition of cytopathic effects): active
  IC50: 0.5 µM
In vitro
  CC50: > 10 µM
In vivo
  bioavailability: ~25%

## Nc1ncnc2c1ncn2CCOCP(=O)(OCOC(=O)C12CC3CC(CC(C3)C1)C2)OCOC(=O)C12CC3CC(CC(C3)C1)C2 [bis(adamantoyl oxymethyl)PMEA, bis(adamantoyl oxymethyl)PMEA ester]
HSV II
  activity (inhibition of cytopathic effects): active

## Nc1ncnc2c1ncn2CCOCP(=O)(Oc1ccccc1)Oc1ccccc1 [bis(phenyl)PMEA, Bis(phenyl)PMEA]
HSV II
  activity (inhibition of cytopathic effects): active

## CC(C)(C)C(=O)OCOP1(=O)CO[C@@H](Cn2ccc(N)nc2=O)CO1 (some centres unmarked) [cHPMPC pivaloyloxymethyl ester]
[16]; one of the two phosphorus isomers
  metabolic conversion in homogenate: converted to cHPMPC
[16]; the other phosphorus isomer
  metabolic conversion in homogenate: converted to HPMPC pivaloyloxymethyl monoester
[17]
  conversion in intestinal wash: converted to HPMPC pivaloyloxymethyl monoester

## Nc1ncnc2c1ncn2CCOCP(=O)(O)Oc1ccccc1 [monophenylPMEA, monophenyl ester of PMEA]
HSV II
  activity (inhibition of cytopathic effects): active
